# Test results reported in patent publication US7598244B2, “[1,2,4]triazolo[1,5,a]pyrimidin-2-ylurea derivative and use thereof” (Nippon Kayaku Kabushiki Kaisha, priority 2003, dated 2009).
# Experiments:
# [1] = system: MHC class I molecules of T1 cells (human lymphoma cell line 174×CEM.); assay: Effect on expression of MHC class I from T1 cells (flow cytometry, MFI); format: cell-based; details: 3 days culture
# Summary of the method: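 EC20 is the compound level that lowers MHC class I MFI by 20% relative to compound-free cultures. Read-out was flow cytometry after FITC W6/32 staining.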
# BALB/c mice [2] = assay: Effect on mouse delayed-type hypersensitivity reaction (DTH reaction), swelling of the sole; format: in vivo; details: Intraperitoneal, administration period 7 days, 100 mg/kg/single administration
# Description: Effect on Mouse Delayed-Type Hypersensitivity Reaction (DTH Reaction)
# 1.0×10^5 sheep erythrocytes (Nippon Seibutsu Zairyo Center, Co., Ltd.) were administered to each of BALB/c mice (Charles River Japan, Inc.; female; 8-week-old) by intravenous injection for sensitization. From the day of administration of the sheep erythrocytes, a test compound was administered to the mouse. As a control, a 0.5% carboxymethyl cellulose (CMC)-Na solution and a normal saline solution used as solvents were administered to the same type of mouse via oral administration or intraperitoneal administration. Five days after the antigen sensitization, 1.0×10^8 sheep erythrocytes were subcutaneously injected into the sole of the mouse. 24 hours later, the thickness of the sole was measured. The value obtained by subtracting the mean value of the thicknesses of the soles of mice, to which a normal saline solution had been administered instead of the sheep erythrocytes, from the above measurement value, was defined as swelling of the sole generated as a result of the DTH reaction. The inhibition rate of the swelling of the sole caused by the DTH reaction was calculated using the following formula (5). The amount of the test compound necessary for inhibition of 50% (ED50 value) was obtained as the activity of the test compound to inhibit the DTH reaction. It is to be noted that cyclosporin A was used as a positive control.
# [formula] • Eexp: Swelling of sole of mouse to which test compound was administered • Cexp: Swelling of sole of mouse to which solvent was administered
# [3] = system: MHC class I molecules of human peripheral blood-derived dendritic cells; assay: Effect on expression of MHC class I molecules from human peripheral blood-derived dendritic cells; format: cell-based; details: dendritic cells matured with TNF-α, 3 days; read-out: EC50 (reduction of 50% of the number of cells wherein MHC class I molecules were highly expressed)
# Excerpt: Effect on Expression of MHC Class I Molecules from Human Peripheral Blood-Derived Dendritic Cells
# Monocytes were isolated from human peripheral blood by the specific gravity centrifugation method. Thereafter, using mouse anti-human CD14 antibody-binding microbeads and a magnetic cell separation system (Miltenyi Biotec), CD14 positive cells were separated from the peripheral blood monocytes. The separated CD14 positive cells were suspended in an RPMI 1640 medium containing 10% FBS, and the suspension was then inoculated in a 6-well plate, resulting in a concentration of 1.0×10^6 cells/well. It was cultured at 37° C. for 20 minutes in an incubator containing 5% carbon dioxide. […] Thereafter, RPMI 1640 containing a 500 U/ml human recombinant […] (hereinafter referred to as GM-CSF; Anapure Bioscientific), 50 ng/ml human recombinant interleukin 4 (hereinafter referred to as IL-4; Pepro Tech), and 10% FBS, was added to the remaining suspension at a concentration of 2 ml/well. The obtained mixture was then cultured at 37° C. in an incubator containing 5% carbon dioxide. When adhesive CD14 positive cells are cultured in the presence of GM-CSF and IL-4, the CD14 positive cells were differentiated into non-adhesive immature dendritic cells. After the cells had been cultured for 7 days, non-adhesive cells were recovered to obtain immature dendritic cells. Using a 6-well plate, the immature dendritic cells (2.5×10^5 cells/well) were cultured in RPMI 1640 containing a 100 U/ml human recombinant tumor necrosis factor-α (hereinafter referred to as TNF-a; Pepro Tech), a test compound, and 10% FBS, at 37° C. for 3 days in an incubator containing 5% carbon dioxide. The dendritic cells became mature as a result of the presence of TNF-α, but in the present test, a test compound was allowed to simultaneously act on the cells. The mature dendritic cells were then stained with fluoroisothiocyanate-labeled mouse anti-human MHC class I monoclonal antibody (an antibody generated from the cell line W6/32 (ATCC No. CRL 1991)). The rate of the number of cells wherein MHC class I molecules were highly expressed to the total number of cells was measured by flow cytometry. The reduction rate of the number of cells wherein MHC class I molecules were highly expressed was calculated using the following formula (2), and the concentrations of test compounds necessary for reduction of 50% (EC50 values) were obtained.
# [formula] • Eexp: (The number of cells, wherein MHC class I molecules are highly expressed, in cultured cells containing test compound)/(the total number of cells) • Cexp: (The number of cells, wherein MHC class I molecules are highly expressed, in cultured cells containing no test compounds)/(the total number of cells)
# [4] = system: human dendritic cells cultured with human allogenic T cells; assay: Effect on the ability of human dendritic cells to induce the growth of allogenic T cells ([3H]-thymidine incorporation); format: cell-based; details: Homo sapiens; dendritic cells treated 3 days with test compound and TNF-α, then 5 days with allogenic T cells; read-out: IC50 (inhibition of DNA synthesis of lymphocytes)
# Description: Effect on the Ability of Human Dendritic Cells to Induce the Growth of Allogenic T Cells
# Immature dendritic cells were cultured with a test compound and TNF-α for 3 days by the same method as that described in Test Example 2. The obtained dendritic cells (2.5×10^3 cells/50 μl/well) were cultured together with human allogenic T cells (2.0×10^5 cells/150 μl/well) in a 96-well flat bottom plate at 37° C. for 5 days in an incubator containing 5% carbon dioxide. Thereafter, [^3H]-thymidine (Amersham Pharmacia Biotech) was added thereto at an amount of 1 μCi/10 μl/well, 16 hours before completion of the culture. After completion of the culture, cells were captured on a glass filter using a cell harvester (Skatron Instrument) and then dried. Thereafter, Scintillator ACS-II (Amersham Pharmacia Biotech) was added thereto, and the radioactivity of [^3H]-thymidine incorporated into the cells were then measured using a liquid scintillation counter. The inhibition rate of the DNA synthesis of lymphocytes was calculated using the following formula (3). Thereafter, the concentration of a test compound necessary for inhibition of 50% (IC50 value) was obtained.
# [formula] • Eexp: The amount of [^3H]-thymidine incorporated into cultured cells containing test compound • Cexp: The amount of [^3H]-thymidine incorporated into cultured cells containing no test compounds
# BDF1 mice = assay: Effect on graft versus host (GVH) reaction, spleen weight measurement method; format: in vivo, mouse; details: subcutaneous, twice a day for 7 days
# Description: Effect on Graft Versus Host (GVH) Reaction
# The effect of the compound on the GVH reaction was determined in accordance with the spleen weight measurement method of Simonsen et al. (Simonsen et al., Annals of the New York Academy of Sciences, p. 73 (1978)). Splenic cells were prepared from C57BL/6 mice (Charles River Japan, Inc.; female; 10-week-old), and the cells (5.0×10^6 cells) were transferred into the abdominal cavity of each of BDF1 mice (Charles River Japan; […]). From the day of transferring of the above cells, the test compound having each diluted concentration or a 5% glucose solution used as a solvent was subcutaneously administered to the BDF1 mice twice a day for 7 consecutive days. Eight days after the transferring of the above cells, the spleen weight of each of the BDF1 mice was measured. The reduction rate of the spleen weight was calculated using the following formula (6). The amount of the test compound necessary for reduction of 50% (ED50 value) was obtained.
# [formula] • Eexp: Spleen weight of mouse to which test compound was administered • Cexp: Spleen weight of mouse to which solvent was administered
# BALB/c mice [5] = assay: Effect on mouse plaque forming cells (PFCs) to sheep erythrocytes; format: in vivo; details: Intraperitoneal, 25 mg/kg/single administration, twice a day for 4 days
# Description: Effect on Mouse Plaque Forming Cells (PFCs)
# Sheep erythrocytes (Nippon Seibutsu Zairyo Center, Co., Ltd.) were intraperitoneally administered to each of BALB/c mice (Charles River Japan, Inc.; female; 8-week-old) at an amount of 1.0×10^8 cells. Thereafter, a test compound was administered thereto twice a day for 4 days after the first administration (only once on the first day) (n=4). On the day subsequent to completion of the administration of the test compound, splenic cells were prepared from the mouse, and the number of PFCs to the sheep erythrocytes was counted by the method of Cunninham (Cunninham, A. J. et al., Immunology, vol. 14, p. 599 (1968)). The number of PFCs per number of splenic cells of 1.0×10^6 was obtained. The reduction rate of the number of PFC in the mouse to which the test compound had been administered, to the number of PFCs in a control mouse to which the test compound had not been administered but only a solvent had been administered, was calculated using the following formula (4).
# [formula] • Eexp: The number of PFCs per 1×10^6 splenic cells of mouse to which test compound was administered • Cexp: The number of PFCs per 1×10^6 splenic cells of mouse to which solvent was administered
SMILES,EC20 (concentration necessary for suppressing 20% of the expression level of MHC class I molecules) [1],Inhibition rate (%) of swelling of the sole (BALB/c mice [2]),EC50 [3],IC50 [4],Inhibition rate (%) (reduction rate of the spleen weight) (BDF1 mice; 25 × 2 mg/kg/single administration),Inhibition rate (%) (reduction rate of the spleen weight) (BDF1 mice; 50 × 2 mg/kg/single administration),Reduction rate (%) of number of PFCs (BALB/c mice [5])
COc1ccc(-c2ccnc3nc(NC(=O)N[C@H](C(=O)NCCN4CCCCC4)C(C)C)nn23)cc1.Cl [Example 135],810 nM,40.2%,,,,,
COc1ccc(-c2ccnc3nc(NC(=O)NCc4cccnc4)nn23)cc1 [Example 039],300 nM,,540 nM,1520 nM,14.1%,29.5%,
COc1ccc(-c2ccnc3nc(NC(=O)N[C@H]4CC[C@H](O)CC4)nn23)cc1 [Example 037],200 nM,,200 nM,1360 nM,,,31.2%
